Patent publication US5023275A, “S-substituted beta-thioacrylamide biocides and fungicides” (Rohm and Haas Company, priority 1990, dated 1991)
≈ marks a conversion by molar mass, not a printed value. Like-named read-outs stand apart in the source and are kept apart here.

Key:
[1] = tested on: Pseudomonas fluorescens (Ps.fl); experiment: Alternate Minimum Inhibitory Concentration test, Ps.fl (Table 7); type: cell-based; details: TSB, 72 hours, 30° C.
Description: From this solution, 100 μl was transferred to the first row of two microtiter plate columns. […] Inoculation was accomplished by diluting a 24 hr Ps fl culture, four mls per 36 mls of phosphate buffer solution. A Dynatech autoinoculator was used to transfer 1.5 μl of this cell suspension to the microtiter plates.

[2] = tested on: Pellicularia filamentosa (f. sp. sasiki); details: in vivo
Piricularia oryzae = type: in vivo; details: rice, 7 to 8 days after inoculation
[3] = tested on: Pseudoperonospora cubensis; details: in vivo
[4] = tested on: Erysiphe graminis (f. sp. tritici); details: in vivo
Aspergillus niger (A.n) [5] = experiment: Alternate Minimum Inhibitory Concentration test, A.n (Table 7); type: cell-based; details: TSB, 72 hours, 30° C.
[6] = tested on: Puccinia recondita (f. sp. tritici Races PKB and PLD); details: in vivo
Phytophthora infestans = type: in vivo; details: tomato, 4 days after inoculation
Escherichia coli (E.c) [7] = experiment: Alternate Minimum Inhibitory Concentration test, E.c (Table 7); type: cell-based; details: TSB, 72 hours, 30° C.
[8] = tested on: Staphylococcus aureus (S.a); experiment: Alternate Minimum Inhibitory Concentration test, S.a (Table 7); type: cell-based; details: TSB, 72 hours, 30° C.
[9] = tested on: Puccinia graminis (f. sp. tritici Race 15B-2); type: in vivo; details: wheat, two weeks
Candida albicans (C.alb) = experiment: Alternate Minimum Inhibitory Concentration test, C.alb (Table 7); type: cell-based; details: TSB, 72 hours, 30° C.
[10] = tested on: Aureobasidium pullulans (A.p); experiment: Alternate Minimum Inhibitory Concentration test, A.p (Table 7); type: cell-based; details: TSB, 72 hours, 30° C.
[11] = tested on: Pseudomonas aerugenosa (Ps.ae); experiment: Alternate Minimum Inhibitory Concentration test, Ps.ae (Table 7); type: cell-based; details: TSB, 72 hours, 30° C.
[12] = tested on: Pseudomonas aerugenosa (Ps.ae); experiment: MIC, broth two-fold serial dilution test, Ps.ae (Table 6); type: cell-based; details: two-fold serial dilution in broth, 500 to 4 ppm
Description: (§1) A minimum inhibitory concentration (MIC) value is obtained using a broth, two-fold serial dilution test performed as follows: […] A volume of the stock solution is dispensed into culture media to give an initial starting test concentration of 500 ppm compound. When the test is ready to be done, each vessel in the dilution series, except the first vessel, contains an equal volume of compound free broth. The first vessel contains twice the volume of broth with the starting concentration of test compound. One half of the broth from the first vessel is transferred to the second vessel. After being mixed, one half the resulting volume is removed from the second vessel and transferred to the third vessel. […] Each vessel is then inoculated with a cell suspension of the appropriate test organism. Bacteria are grown in broth and fungi on agar […] for a time and at a temperature appropriate to the species being tested. At the end of the growth period, the broth is vortexed to disperse the cells. In the case of fungi, the spores are harvested by pipetting water onto the slant and dislodging the spores with a sterile loop. The cell/spore suspension is standardized by controlling incubation time, temperature, and the volume of the diluent. The suspension is then used to inoculate the vessels containing the broth compound. The vessels are then incubated at the appropriate temperature. […]

Pseudomonas fluorescens = experiment: Speed of Kill (SOK) Test, 4 hours (Table 6); type: cell-based; details: Ps. fluorescens in synthetic hard water, 30° C., read-out: SOK: concentration at which compound killed >99.999% of the cells
Description: The Speed of Kill (SOK) Test measures the loss of cell viability in an aqueous suspension of bacterial cells during a four hour period when these cells are contacted with a defined concentration of the test compound in synthetic hard water (SHW). A stock solution or dispersion of the test compound, typically at a concentration of 1%, is made in a 5:3:2 solvent solution of acetone, methanol, and water. The SHW is made by taking one liter of sterile deionized water and adding the following solutions to it:
1. 2 ml of a solution of 31.74 g of MgCl2 and 73.99 g of CaCl2 in 1000 ml. of sterile distilled water which has been heat sterilized.
2. 4 ml of a solution of 56.03 g of NaHCO3 in 1000 ml of water which has been filter sterilized.
The combined solution is then filter sterilized to yield the SHW. A volume of the stock solution is dispensed into the SHW to give an initial test compound starting concentration of 500 ppm.
When the test is ready to be run, each vessel in the dilution series, except the first vessel, contains an equal volume of the SHW mixture with the test compound. The first vessel contains twice the volume of SHW with the starting concentration of test compound. One half of the SHW from the first vessel is transferred to the second vessel. After being mixed, one half the resulting volume is removed from the second vessel and transferred to the third vessel. […]

[13] = tested on: Staphylococcus aureus (S.a); experiment: MIC, broth two-fold serial dilution test, S.a (Table 6); type: cell-based; details: two-fold serial dilution in broth, 500 to 4 ppm
Description: as §1

[14] = tested on: Aureobasidium pullulans (A.p); experiment: MIC, broth two-fold serial dilution test, A.p (Table 6); type: cell-based; details: two-fold serial dilution in broth, 500 to 4 ppm
Description: as §1

Aspergillus niger (A.n) [15] = experiment: MIC, broth two-fold serial dilution test, A.n (Table 6); type: cell-based; details: two-fold serial dilution in broth, 500 to 4 ppm
Description: as §1

[16] = tested on: Pseudomonas fluorescens (Ps.fl); experiment: MIC, broth two-fold serial dilution test, Ps.fl (Table 6); type: cell-based; details: two-fold serial dilution in broth, 500 to 4 ppm
Description: as §1

Escherichia coli (E.c) [17] = experiment: MIC, broth two-fold serial dilution test, E.c (Table 6); type: cell-based; details: two-fold serial dilution in broth, 500 to 4 ppm
Description: as §1

Structure (SMILES)	MIC [1] [µg/mL]	% Control RSB [2] [%]	% Control RB (Piricularia oryzae; application rate 100 ppm) [%]	% Control CDM [3] [%]	% Control WPM [4] [%]	MIC (Aspergillus niger (A.n) [5]) [µg/mL]	% Control TLB (Phytophthora infestans; application rate 100 ppm) [%]	MIC (Escherichia coli (E.c) [7]) [µg/mL]	MIC [8] [µg/mL]	% Control RB (Piricularia oryzae; application rate 200 ppm) [%]	% Control WSR ([9]; application rate 300 ppm) [%]	MIC (Candida albicans (C.alb)) [µg/mL]	MIC [10] [µg/mL]	% Control TLB (Phytophthora infestans; application rate 300 ppm) [%]	MIC [11] [µg/mL]	also measured
CC(=O)C(S/C(Cl)=C\C(=O)Nc1ccc(Cl)cc1)C(C)=O [Example 6, N-(p-chlorophenyl)-3-chloro-cis-3-thio-(1-acetylpropan-2-on-1-yl)acrylamide]	> 500	0	50	85	0	> 500	0	–	–	–	–	–	–	–	–	% Control WLR [6]: 50%
CC(=O)C(S/C=C\C(=O)NCCc1ccccc1)C(C)=O [Example 3, N-(beta-phenethyl)-cis-3-thio-(1-acetylpropan-2-on-1-yl)-acrylamide]	> 500	0	–	90	0	63 to 500 (≈ 206 to 1640 µM)	–	250 (≈ 819 µM)	63 (≈ 206 µM)	94	40	31 (≈ 102 µM)	8 to 16 (≈ 26.2 to 52.4 µM)	20	> 500	–
CC(=O)C(S/C=C(/C)C(=O)Nc1ccc(Cl)cc1)C(C)=O [Example 7, N-(p-chlorophenyl)-2-methyl-cis-3-thio-(1-acetylpropan-2-on-1-yl)acrylamide]	> 500	0	50	0	60	31 to 63 (≈ 95.1 to 193 µM)	0	63 to 125 (≈ 193 to 384 µM)	125 (≈ 384 µM)	–	–	16 (≈ 49.1 µM)	4 to 8 (≈ 12.3 to 24.6 µM)	–	> 500	% Control WLR [6]: 50%
CC(=O)C(S/C=C\C(=O)NCc1ccccc1)C(C)=O [Example 2, N-benzyl-cis-3-thio-(1-acetylpropan-2-on-1-yl)acrylamide]	> 500	0	–	70	0	125 to 500 (≈ 429 to 1720 µM)	–	63 to 125 (≈ 216 to 429 µM)	31 (≈ 106 µM)	–	40	31 to 63 (≈ 106 to 216 µM)	31 (≈ 106 µM)	0	500 (≈ 1720 µM)	% Control RB (Piricularia oryzae; application rate 300 ppm): 0%
CC(=O)C(S/C=C\C(=O)NCc1ccc(Cl)cc1)C(C)=O [Example 4, N-(p-chlorobenzyl)-cis-3-thio-(1-acetylpropan-2-on-1-yl)-acrylamide]	> 500	0	–	95	0	31 to 500 (≈ 95.1 to 1530 µM)	–	63 (≈ 193 µM)	31 (≈ 95.1 µM)	89	30	63 (≈ 193 µM)	16 (≈ 49.1 µM)	15	> 500	–
CC(=O)C(S/C(Cl)=C(/C)C(=O)Nc1ccc(Cl)cc1)C(C)=O [Example 1, N-(p-Chlorophenyl)-2-methyl-3-chloro-cis-3-thio-(1-acetylpropan-2-on-1-yl)acrylamide]	4 to 16 (≈ 11.1 to 44.4 µM)	0	–	100	0	4 to 8 (≈ 11.1 to 22.2 µM)	–	< 4	< 4	80	70	< 4	< 4	90	8 (≈ 22.2 µM)	MIC [12]: < 4 µg/mL; MBC (Pseudomonas fluorescens): 32 µg/mL (≈ 88.8 µM); MIC [13]: < 4 µg/mL; MIC [14]: < 4 µg/mL; MIC (Aspergillus niger (A.n) [15]): < 4 µg/mL; MIC [16]: < 4 µg/mL; MIC (Escherichia coli (E.c) [17]): < 4 µg/mL
CC(=O)C(S/C(Cl)=C(/C)C(=O)Nc1ccccc1)C(C)=O [Example 5, N-phenyl-2-methyl-3-chloro-cis-3-thio-(1-acetylpropan-2-on-1-yl)acrylamide]	16 (≈ 49.1 µM)	–	50	49	0	< 4	35	< 4	8 (≈ 24.6 µM)	–	–	16 (≈ 49.1 µM)	16 (≈ 49.1 µM)	–	16 to 31 (≈ 49.1 to 95.1 µM)	MIC [12]: 8 µg/mL (≈ 24.6 µM); MBC (Pseudomonas fluorescens): < 4 µg/mL; % Control WSR ([9]; application rate 100 ppm): 50%; MIC [13]: < 4 µg/mL; MIC [14]: 32 µg/mL (≈ 98.2 µM); MIC (Aspergillus niger (A.n) [15]): < 4 µg/mL; MIC [16]: < 4 µg/mL; MIC (Escherichia coli (E.c) [17]): < 4 µg/mL
